Experiments:
[1] = test system: Ba/F3 cells expressing EGFR T790M/del19 mutation kinase; experiment: Inhibition of EGFR T790M/del19 mutation kinase-dependent cell proliferation (Cell Titer-Glo); type: cell-based; conditions: Mus musculus, BaF3, 48 h; Ba/F3 cells expressing EGFR T790M/del19, cultured 2 days
Experimental: (§1) In a 96-well plate (Iwaki), Ba/F3 cells were seeded at 500 cells per well in an RPMI1640 medium (Invitrogen) containing 10% fetal bovine serum, followed by the addition of the test compound (final concentrations ranging from 1 μM to 0.1 nM) and DMSO which was a solvent of the test compound as a negative control. In the presence of 5% CO2, the cells were cultured at 37° C. for 2 days. A cell counting reagent (Cell Titer-Glo; Promega) was added thereto, and the light emitting intensity was measured using a luminometer (Envison or ARVO; PerkinElmer Inc.). […] The inhibitory rate of the test compound was calculated and the concentration causing 50% inhibition (IC50 value) was determined by a logistic regression method.

EGFR [T790M/L858R] = EGFR [T790M/L858R] (Homo sapiens (Human), UniProt P00533, L858R/T790M); experiment: Inhibitory activity on EGFR T790M/L858R mutation kinase (LabChip peptide substrate phosphorylation); type: biochemical; conditions: EGFR [T790M/L858R] enzyme, 2 hours preincubation, ATP 1000 μM
Experimental: The phosphorylation activity on the peptide substrate of EGFR was investigated using LabChip (trademark) Systems (Caliper Life Sciences, Inc.). […] (Carna Biosciences, Inc.) was used. […] Then, the substrate and the ATP solution were added thereto, followed by reaction for 1 hour. An ATP concentration of 1000 μM was used. A reaction liquid containing the enzyme protein but no test compound (in which the DMSO alone was added as a solvent at 0.4% in place of the test compound) was prepared, followed by reaction in the same manner with or without ATP addition. […] The concentration causing 50% inhibition (IC50) was calculated for the test compound by a logistic regression method.

[2] = test system: Ba/F3 cells expressing EGFR T790M/L858R mutation kinase; experiment: Inhibition of EGFR T790M/L858R mutation kinase-dependent cell proliferation (Cell Titer-Glo); type: cell-based; conditions: Mus musculus, BaF3, 48 h, cultured 2 days
Experimental: as §1

[3] = test system: H1975 cells (EGFR T790M mutation-expressing) subcutaneous tumor; experiment: Anti-tumor test on EGFR T790M mutation-expressing H1975 cell cancer-bearing mice; type: in vivo; conditions: Mus musculus, NCI-H1975, 336 h; H1975 cancer-bearing nude mice, oral 10 mg/kg once a day for 14 days; read-out: inhibitory rate (tumor volume)
Experimental: 3×10^6 Cells of H1975 suspended in PBS were inoculated subcutaneously by injection to the back of 5-week old male […] nude mice (Charles River Laboratories Japan, Inc.). After 10 days of the inoculation, the administration of the test compound was initiated. The test was carried out in the solvent group and the test compound groups, with 5 animals per group. The test compounds were each mixed in a solvent of 0.5% aqueous methyl cellulose solution or a mixed solvent of polyethyleneglycol:N-methylpyrrolidone=90:10, and administered orally at a dose of 10 mg/kg. Administrations were performed once a day for 14 days, and the body weight and the tumor diameter were measured roughly every other day. The tumor volume was calculated using the following formula. [Tumor volume (mm^3)]=[Tumor major axis (mm)]×[Tumor minor axis (mm)]^2×0.5

Sequence of EGFR [T790M/L858R] (P00533 25-1210 T790M/L858R): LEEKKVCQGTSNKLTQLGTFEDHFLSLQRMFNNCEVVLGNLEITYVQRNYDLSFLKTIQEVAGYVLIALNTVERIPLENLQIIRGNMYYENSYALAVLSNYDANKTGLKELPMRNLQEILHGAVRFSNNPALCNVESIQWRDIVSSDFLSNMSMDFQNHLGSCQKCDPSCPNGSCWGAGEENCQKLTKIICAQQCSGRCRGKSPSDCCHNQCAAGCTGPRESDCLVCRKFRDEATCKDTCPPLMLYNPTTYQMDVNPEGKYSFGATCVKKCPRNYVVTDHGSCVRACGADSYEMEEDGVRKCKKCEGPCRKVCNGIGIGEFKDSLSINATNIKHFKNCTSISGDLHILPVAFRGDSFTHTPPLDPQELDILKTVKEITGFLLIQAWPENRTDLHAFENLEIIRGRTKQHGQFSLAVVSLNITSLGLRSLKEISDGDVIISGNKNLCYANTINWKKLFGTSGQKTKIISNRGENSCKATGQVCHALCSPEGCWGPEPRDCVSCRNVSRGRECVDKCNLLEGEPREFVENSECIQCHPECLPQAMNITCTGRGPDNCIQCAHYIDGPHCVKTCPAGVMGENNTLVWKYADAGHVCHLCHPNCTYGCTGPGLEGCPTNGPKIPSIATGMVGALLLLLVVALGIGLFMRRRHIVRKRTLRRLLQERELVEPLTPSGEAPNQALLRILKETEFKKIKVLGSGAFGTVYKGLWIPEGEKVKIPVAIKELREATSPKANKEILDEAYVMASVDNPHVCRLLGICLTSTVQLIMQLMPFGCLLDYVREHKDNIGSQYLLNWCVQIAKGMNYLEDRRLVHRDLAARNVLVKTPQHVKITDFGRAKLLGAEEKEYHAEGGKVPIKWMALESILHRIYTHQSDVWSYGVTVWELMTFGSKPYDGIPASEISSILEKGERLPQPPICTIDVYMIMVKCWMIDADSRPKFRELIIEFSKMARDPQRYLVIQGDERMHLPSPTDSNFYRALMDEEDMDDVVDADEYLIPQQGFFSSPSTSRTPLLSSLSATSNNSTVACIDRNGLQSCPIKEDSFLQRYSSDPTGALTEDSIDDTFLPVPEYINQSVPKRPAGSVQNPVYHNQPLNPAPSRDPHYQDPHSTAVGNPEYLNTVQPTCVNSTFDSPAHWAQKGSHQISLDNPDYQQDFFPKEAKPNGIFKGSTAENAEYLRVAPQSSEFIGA

Structure (SMILES): C=CC(=O)Nc1cccc(Oc2nc(Nc3ccc(N4CCN(C)[C@@H](C)C4)cc3)c(C(N)=O)nc2CC)c1 [Example 63]
- IC50 [1]: 0.66 nM

Structure (SMILES): C=CC(=O)N1CC[C@@H](Oc2nc(Nc3ccc(N4CCC(N5CCN(C)CC5)CC4)cc3)c(C(N)=O)nc2CC)C1 [Example 54]
- IC50 (EGFR [T790M/L858R]): 1.7 nM
- IC50 [2]: 4.5 nM
- IC50 [1]: 3.2 nM
- inhibition in vivo at 10 mg/kg [3]: 74%

Structure (SMILES): C=CC(=O)Nc1cccc(Oc2nc(Nc3cnn(C4CCN(C)CC4)c3)c(C(N)=O)nc2C(C)C)c1 [Example 56]
- IC50 (EGFR [T790M/L858R]): 1.3 nM
- IC50 [2]: 2 nM
- IC50 [1]: 1.6 nM

Structure (SMILES): C=CC(=O)N1CCC[C@@H](Oc2nc(Nc3ccc(N4CCC(N5CCN(C)CC5)CC4)cc3)c(C(N)=O)nc2CC)C1 [Example 79]
- IC50 (EGFR [T790M/L858R]): 1.3 nM
- inhibition in vivo at 10 mg/kg [3]: 30%

Structure (SMILES): C=CC(=O)Nc1ccc(F)c(Oc2nc(Nc3ccc(N4CCN(C)CC4)cc3)c(C(N)=O)nc2CC)c1 [Example 82]
- IC50 (EGFR [T790M/L858R]): 1.5 nM
- inhibition in vivo at 10 mg/kg [3]: 84%

Structure (SMILES): C=CC(=O)Nc1cccc(Oc2nc(Nc3ccc(N4CCN(C)CC4)cc3)c(C(N)=O)nc2CC)c1C [Example 15]
- IC50 (EGFR [T790M/L858R]): 1.2 nM
- IC50 [2]: 1.1 nM
- IC50 [1]: 0.77 nM
- inhibition in vivo at 10 mg/kg [3]: 41%

Structure (SMILES): C=CC(=O)Nc1cccc(Oc2nc(Nc3ccc(N4CCN(C)[C@H](C)C4)cc3)c(C(N)=O)nc2CC)c1 [Example 64]
- IC50 [1]: 0.42 nM
- inhibition in vivo at 10 mg/kg [3]: 28%

Structure (SMILES): C=CC(=O)Nc1cccc(Oc2nc(Nc3ccc(N4CCN(C)CC4)cc3)c(C(N)=O)nc2CC)c1 [Example 1, 5-[3-(acryloylamino)phenoxy]-6-ethyl-3-{[4-(4-methylpiperazin-1-yl)phenyl]amino}pyrazine-2-carboxamide]
- IC50 (EGFR [T790M/L858R]): 1.3 nM
- IC50 [2]: 2.2 nM
- IC50 [1]: 1.4 nM
- inhibition in vivo at 10 mg/kg [3]: 24%

Structure (SMILES): C=CC(=O)N1CCC(c2nc(Nc3ccc(N4CCC(N5CCN(C)CC5)CC4)c(C)c3)c(C(N)=O)nc2CC)CC1 [Example 24]
- IC50 [1]: 0.48 nM
- inhibition in vivo at 10 mg/kg [3]: 100%

Structure (SMILES): C=CC(=O)Nc1cccc(Oc2nc(Nc3ccc(N4CCN(CC)CC4)cc3)c(C(N)=O)nc2CC)c1 [Example 43]
- IC50 [1]: 0.51 nM

Structure (SMILES): C=CC(=O)Nc1cccc(Oc2cnc(C(N)=O)c(Nc3ccc(N4CCN(C)CC4)cc3)n2)c1 [Example 26]
- IC50 (EGFR [T790M/L858R]): 1.1 nM
- IC50 [2]: 0.92 nM
- IC50 [1]: 0.52 nM

Structure (SMILES): CCc1nc(C(N)=O)c(Nc2ccc(N3CCN(C)CC3)cc2)nc1Oc1cccc(NC(=O)/C=C/CN(C)C)c1 [Example 3, 5-(3-{[(2E)-4-(dimethylamino)buta-2-enoyl]amino}phenoxy)-6-ethyl-3-{[4-(4-methylpiperazin-1-yl)phenyl]amino}pyrazine-2-carboxamide]
- IC50 (EGFR [T790M/L858R]): 1.4 nM
- IC50 [2]: 17 nM
- IC50 [1]: 8.8 nM

Structure (SMILES): C=CC(=O)N1CCC[C@@H](Oc2nc(Nc3ccc(N4CCC(N5CCN(C)CC5)CC4)c(C)c3)c(C(N)=O)nc2CC)C1 [Example 80]
- IC50 (EGFR [T790M/L858R]): 1.2 nM
- inhibition in vivo at 10 mg/kg [3]: 27%

Structure (SMILES): C=CC(=O)Nc1cccc(Oc2nc(Nc3ccc(OC)c(N4CCN(C)CC4)c3)c(C(N)=O)nc2CC)c1 [Example 42]
- IC50 (EGFR [T790M/L858R]): 1.2 nM
- IC50 [2]: 1.4 nM
- IC50 [1]: 1.3 nM

— patent publication US9085540B2, “Pyrazinecarboxamide compound” (Astellas Pharma Inc., priority 2012, dated 2015)
